In brackets after ≈: the same amount, converted by molar mass.
Tests used:
[1] = Solubility in phosphate buffer at pH 7.4; type: physicochemical
[2] = Drug uptake in lung of rat at 0.020 micromol/kg, IT; type: ADME, tissue-based; details: in vivo, other, dose 0.02 µmol/kg
[3] = Thermodynamic solubility of the compound in phosphate buffer at pH 6.5 measured after 24 hrs by HPLC-MS analysis; type: physicochemical; details: read-out: Therm_solubility
[4] = Inhibition of JAK/STAT signaling pathway in human U-937 cells assessed as inhibition of IL-4 stimulated STAT6 phosphorylation; type: cell-based
[5] = Inhibition of JAK/STAT signaling pathway in human U-937 cells assessed as inhibition of IL-13 stimulated STAT6 phosphorylation; type: cell-based
[6] = Plasma protein binding in human assessed as free fraction; type: ADME, cell-free
[7] = AUC(0 to 24 hrs) in rat at 0.020 micromol/kg, IT; type: ADME; parameters: dose 0.02 µmol/kg, route it; details: in vivo, 0.02 µmol/kg
[8] = Thermodynamic solubility of the compound in phosphate buffer at pH 7.4 measured after 24 hrs by HPLC-MS analysis; type: physicochemical; details: read-out: Therm_solubility
[9] = Distribution coefficient between 1-Octanol and aqueous phosphate buffer, logD of the compound at pH 7.4 by shake-flask method; type: physicochemical; details: 1-octanol/aqueous phosphate buffer, read-out: logD
[10] = Apparent permeability of compound across apical to basolateral side in human Caco-2 cells at pH 7.4; type: ADME, cell-based; details: Caco-2, pH 7.4
[11] = biological target: T1, Tyrosine-protein kinase JAK3 (Homo sapiens, UniProt P52333); test: Inhibition of N-terminal GST-tagged human recombinant JAK3 (781 to 1124 residues) expressed in insect cells using 5FAM-GEEPLYWSFPAKKK-NH2 peptide as substrate incubated for 10 mins measured after 90 mins in presence of ATP by caliper mobility shift assay
T1 sequence (P52333 whole entry): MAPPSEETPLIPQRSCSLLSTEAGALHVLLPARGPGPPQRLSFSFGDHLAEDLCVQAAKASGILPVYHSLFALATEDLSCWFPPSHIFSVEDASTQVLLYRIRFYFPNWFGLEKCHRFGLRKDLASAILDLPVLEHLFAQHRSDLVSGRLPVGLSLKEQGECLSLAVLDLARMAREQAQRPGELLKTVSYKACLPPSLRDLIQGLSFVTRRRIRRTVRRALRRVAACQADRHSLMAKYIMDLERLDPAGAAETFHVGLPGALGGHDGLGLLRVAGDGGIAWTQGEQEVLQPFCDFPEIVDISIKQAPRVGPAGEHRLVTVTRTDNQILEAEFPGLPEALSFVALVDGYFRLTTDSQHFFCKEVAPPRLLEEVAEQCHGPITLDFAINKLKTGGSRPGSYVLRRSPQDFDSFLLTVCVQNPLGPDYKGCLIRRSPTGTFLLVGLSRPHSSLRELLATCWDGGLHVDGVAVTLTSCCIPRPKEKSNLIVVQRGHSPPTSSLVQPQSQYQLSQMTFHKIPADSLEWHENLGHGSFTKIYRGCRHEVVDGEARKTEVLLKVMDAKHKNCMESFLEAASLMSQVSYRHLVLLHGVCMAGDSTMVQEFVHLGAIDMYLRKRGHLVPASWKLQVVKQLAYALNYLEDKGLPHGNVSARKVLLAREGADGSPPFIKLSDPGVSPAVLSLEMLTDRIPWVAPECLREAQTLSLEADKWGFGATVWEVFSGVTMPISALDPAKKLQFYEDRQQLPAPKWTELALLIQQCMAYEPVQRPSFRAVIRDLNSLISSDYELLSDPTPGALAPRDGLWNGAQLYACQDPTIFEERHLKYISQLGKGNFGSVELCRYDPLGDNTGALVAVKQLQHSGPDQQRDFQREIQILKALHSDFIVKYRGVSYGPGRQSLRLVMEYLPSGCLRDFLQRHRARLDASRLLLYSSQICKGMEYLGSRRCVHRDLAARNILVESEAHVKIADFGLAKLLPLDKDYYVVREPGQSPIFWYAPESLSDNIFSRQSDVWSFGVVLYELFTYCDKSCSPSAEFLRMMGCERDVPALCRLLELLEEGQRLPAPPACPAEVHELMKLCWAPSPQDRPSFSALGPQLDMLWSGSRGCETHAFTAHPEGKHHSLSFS

[12] = biological target: Tyrosine-protein kinase JAK1 (Homo sapiens, UniProt P23458); test: Inhibition of N-terminal GST-tagged human recombinant JAK1 (866 to 1154 residues) expressed in insect cells using FITC-C6-KKHTDDGYMPMSPGVA-NH peptide as substrate incubated for 10 mins measured after 90 mins in presence of ATP by caliper mobility shift assay
Chain of Tyrosine-protein kinase JAK1 (P23458 whole entry, the tested form may be a part): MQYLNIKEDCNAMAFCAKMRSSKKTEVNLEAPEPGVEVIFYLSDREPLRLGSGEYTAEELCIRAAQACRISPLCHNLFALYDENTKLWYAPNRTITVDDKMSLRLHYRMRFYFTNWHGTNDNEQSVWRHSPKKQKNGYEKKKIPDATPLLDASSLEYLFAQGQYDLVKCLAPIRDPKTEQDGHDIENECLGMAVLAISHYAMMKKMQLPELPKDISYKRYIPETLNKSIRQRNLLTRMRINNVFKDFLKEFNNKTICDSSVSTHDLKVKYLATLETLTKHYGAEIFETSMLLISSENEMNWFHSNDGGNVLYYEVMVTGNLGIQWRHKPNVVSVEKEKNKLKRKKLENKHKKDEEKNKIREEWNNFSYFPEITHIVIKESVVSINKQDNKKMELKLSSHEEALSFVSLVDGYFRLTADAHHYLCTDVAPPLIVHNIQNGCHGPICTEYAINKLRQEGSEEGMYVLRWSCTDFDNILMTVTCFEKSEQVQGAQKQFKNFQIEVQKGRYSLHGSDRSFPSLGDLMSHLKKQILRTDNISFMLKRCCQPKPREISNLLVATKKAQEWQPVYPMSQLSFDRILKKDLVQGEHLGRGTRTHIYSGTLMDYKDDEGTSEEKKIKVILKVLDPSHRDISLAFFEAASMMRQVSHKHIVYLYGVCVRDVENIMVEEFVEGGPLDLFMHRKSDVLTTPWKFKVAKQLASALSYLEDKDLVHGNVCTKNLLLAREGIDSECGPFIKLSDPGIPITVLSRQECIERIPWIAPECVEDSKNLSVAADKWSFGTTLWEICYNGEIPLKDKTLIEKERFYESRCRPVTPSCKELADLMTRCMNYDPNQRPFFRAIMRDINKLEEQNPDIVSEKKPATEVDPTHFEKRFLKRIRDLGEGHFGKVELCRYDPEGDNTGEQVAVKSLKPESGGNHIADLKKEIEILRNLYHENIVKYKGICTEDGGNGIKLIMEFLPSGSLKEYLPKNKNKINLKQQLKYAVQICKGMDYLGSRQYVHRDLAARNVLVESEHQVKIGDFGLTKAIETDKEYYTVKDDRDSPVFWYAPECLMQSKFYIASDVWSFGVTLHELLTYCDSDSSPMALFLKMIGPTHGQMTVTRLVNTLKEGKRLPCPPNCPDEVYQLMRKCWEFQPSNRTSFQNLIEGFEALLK

[13] = biological target: Tyrosine-protein kinase JAK2 (Homo sapiens, UniProt O60674); test: Inhibition of N-terminal GST-tagged human recombinant JAK2 (831 to 1132 residues) expressed in insect cells using 5FAM-GEEPLYWSFPAKKK-NH2 peptide as substrate incubated for 10 mins measured after 90 mins in presence of ATP by caliper mobility shift assay
Chain of Tyrosine-protein kinase JAK2 (O60674 whole entry, the tested form may be a part): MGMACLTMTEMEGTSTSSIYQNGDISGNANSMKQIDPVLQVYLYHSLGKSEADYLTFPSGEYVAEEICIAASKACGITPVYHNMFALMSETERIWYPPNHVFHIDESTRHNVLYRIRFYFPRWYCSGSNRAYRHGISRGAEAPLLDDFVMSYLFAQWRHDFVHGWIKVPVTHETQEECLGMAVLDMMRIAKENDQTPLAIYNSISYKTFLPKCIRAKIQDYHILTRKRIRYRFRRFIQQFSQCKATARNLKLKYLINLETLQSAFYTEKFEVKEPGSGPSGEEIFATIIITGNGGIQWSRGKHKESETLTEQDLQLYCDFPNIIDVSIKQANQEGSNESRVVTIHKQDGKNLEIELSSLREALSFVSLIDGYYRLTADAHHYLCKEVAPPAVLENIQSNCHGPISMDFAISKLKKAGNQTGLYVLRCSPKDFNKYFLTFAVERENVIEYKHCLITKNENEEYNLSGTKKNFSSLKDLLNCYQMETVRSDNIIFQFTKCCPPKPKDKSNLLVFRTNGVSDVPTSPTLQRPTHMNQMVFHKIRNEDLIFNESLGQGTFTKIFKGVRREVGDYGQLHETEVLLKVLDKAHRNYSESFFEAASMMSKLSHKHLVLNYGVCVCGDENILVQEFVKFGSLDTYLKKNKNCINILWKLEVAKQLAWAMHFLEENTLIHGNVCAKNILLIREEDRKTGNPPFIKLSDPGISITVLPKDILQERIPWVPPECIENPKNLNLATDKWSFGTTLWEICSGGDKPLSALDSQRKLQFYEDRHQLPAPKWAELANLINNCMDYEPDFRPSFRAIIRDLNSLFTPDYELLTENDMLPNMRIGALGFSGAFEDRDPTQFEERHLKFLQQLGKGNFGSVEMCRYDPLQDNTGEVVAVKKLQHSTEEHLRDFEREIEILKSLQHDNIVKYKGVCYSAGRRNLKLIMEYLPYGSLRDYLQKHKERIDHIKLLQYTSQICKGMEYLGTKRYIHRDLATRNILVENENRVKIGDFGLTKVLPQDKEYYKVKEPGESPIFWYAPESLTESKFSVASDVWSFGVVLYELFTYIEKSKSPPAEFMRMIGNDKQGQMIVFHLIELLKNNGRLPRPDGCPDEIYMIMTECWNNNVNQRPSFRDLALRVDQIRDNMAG

[14] = Inhibition of JAK/STAT signaling pathway in human CD14-positive cell monocytes isolated from human PBMC assessed as inhibition of IL-13 stimulated STAT6 phosphorylation preincubated for 20 to 60 mins followed by IL-13 stimulation measured after 15 mins by flow cytometry analysis; type: cell-based
[15] = Inhibition of JAK/STAT signaling pathway in human CD4+ T cell assessed as inhibition of IL-4 stimulated STAT6 phosphorylation preincubated for 20 to 60 mins followed by IL-4 stimulation measured after 15 mins by flow cytometry analysis; type: cell-based
Th1 cell = test: Inhibition of human naive Th1 cell differentiation assessed as decrease in IFNg production measured after 5 days by MSD assay; type: functional, cell-based; details: dose 1-10000 nM, time 5.0 day
[16] = Toxicity in human naive Th1 cell assessed as reduction in cell viability at 1 to 10000 nM; type: cell-based; details: 10 µM, dose 1-10000 nM
[17] = Toxicity in human CD4+ T cell assessed as reduction in cell viability measured after 5 days by eFluor780 staining based flow cytometry analysis; details: 120 h, dose 1-10000 nM, time 5 day
[18] = Inhibition of JAK/STAT signaling pathway in human CD14-positive cell monocytes isolated from human PBMC assessed as inhibition of IL-4 stimulated STAT6 phosphorylation preincubated for 20 to 60 mins followed by IL-4 stimulation measured after 15 mins by flow cytometry analysis; type: cell-based
Th2 cell [19] = test: Inhibition of human naive Th2 cell differentiation assessed as decrease in IL-4 production measured after 5 days by MSD assay; type: functional, cell-based; details: dose 1-10000 nM, time 5.0 day
[20] = Toxicity in human naive Th2 cell assessed as reduction in cell viability at 1 to 10000 nM; type: cell-based; details: 10 µM, dose 1-10000 nM
Th17 = test: Inhibition of human memory-derived Th17 cell differentiation assessed as decrease in IL-17 production measured after 5 days by MSD assay; type: functional, cell-based; details: time 5.0 day
CD4+ T cell = test: Antiinflammatory activity in human CD4+ T cell assessed as reduction in CD25 expression measured after 5 days by eFluor780 staining based flow cytometry analysis; type: functional; details: dose 1-10000 nM, time 5.0 day
Th2 cell [21] = test: Inhibition of human naive Th2 cell differentiation assessed as decrease in IL-5 production measured after 5 days by MSD assay; type: functional, cell-based; details: time 5.0 day
Th2 cell [22] = test: Inhibition of human naive Th2 cell differentiation assessed as decrease in IL-13 production measured after 5 days by MSD assay; type: functional, cell-based; details: time 5.0 day
[23] = Toxicity in human memory-derived Th17 cells assessed as reduction in cell viability at 1 to 10000 nM; type: cell-based; details: th17, 10 µM, dose 1-10000 nM
[24] = Efflux ratio of apparent permeability across apical to basolateral side in human Caco-2 cells at pH 7.4; type: ADME, cell-based; details: Caco-2, pH 7.4
[25] = Volume of distribution at steady state in Han Wistar rat at 0.5 mg/kg, iv; type: ADME, organism-based; details: in vivo, read-out: Vdss

solubility [1] [µM] | Drug uptake [2] | solubility thermodynamic at 24 h [3] [µM] | IC50 [4] [nM] | IC50 [5] [nM] | fraction unbound [6] | AUC(0-t) [7] [µM·h] | logD [9] | Papp A→B [10] [×10⁻⁶ cm/s] | Structure (SMILES) | other results
38 (≈ 22.6 µg/mL) | Active | 289 (≈ 172 µg/mL) | 13 | 18 | 0.09 | 0.7 | 2.4 | 2.3 | COC[C@H](C(=O)Nc1cccc2c(-c3nc(Nc4cccc(S(C)(=O)=O)c4F)ncc3C)c[nH]c12)N1CCN(C)CC1 | solubility thermodynamic at 24 h [8]: 40 µM (≈ 23.8 µg/mL)
14 (≈ 7.97 µg/mL) | – | – | 42 | 56 | 0.06 | – | 2.7 | – | C[C@H](C(=O)Nc1cccc2c(-c3nc(Nc4cccc(S(C)(=O)=O)c4F)ncc3F)c[nH]c12)N1CCN(C)CC1 | IC50 [11]: > 30000 nM; IC50 [12]: 20 nM; IC50 [13]: 17500 nM
– | – | – | – | – | – | – | – | – | C[C@@H]1CCN(C(=O)CC#N)C[C@@H]1N(C)c1ncnc2[nH]ccc12 [TOFACITINIB] | IC50 [14]: 57 nM; IC50 [15]: 53 nM; inhibition (Th1 cell): Dose-Dependent Effect; Activity [16]: Non-Toxic; Activity [17]: Dose-Dependent Effect; IC50 [18]: 65 nM; inhibition (Th2 cell [19]): Dose-Dependent Effect; Activity [20]: Non-Toxic; inhibition (Th17): Dose-Dependent Effect; Activity (CD4+ T cell): Dose-Dependent Effect; inhibition (Th2 cell [21]): Dose-Dependent Effect; inhibition (Th2 cell [22]): Dose-Dependent Effect; Activity [23]: Non-Toxic
11 (≈ 6.38 µg/mL) | Active | 104 (≈ 60.3 µg/mL) | 15 | 22 | 0.05 | 1.6 | 2.8 | 2.7 | CC[C@H](C(=O)Nc1cccc2c(-c3nc(Nc4cccc(S(C)(=O)=O)c4F)ncc3C)c[nH]c12)N1CCN(C)CC1 | efflux ratio [24]: 3.6; Vd [25]: 9 L/kg

From ChEMBL document CHEMBL5365521, “Discovery of the Potent and Selective Inhaled Janus Kinase 1 Inhibitor AZD4604 and Its Preclinical Characterization” (J Med Chem, 2023)
